# Columns and labels:
# RKO WT cells [1] = details: method not stated for this control
# Text: (§1) Prior to screening the compound library in the isogenic CPA, we assessed their CRBN binding affinities using a fluorescence-polarization-based competition assay with recombinant DDB1-CRBN and the fluorescent tracer 16 (Figure S2). […] We also assessed the cytotoxicity of the CRBN binders in RKO wild-type (WT) cells to determine the appropriate treatment concentration.
# (§2) Assessment of gene expression and essentiality in RKO WT
# Public datasets on the transcriptome and essentiality of a protein‐encoding gene for RKO (cell line ID: ACH‐000943) were retrieved from DepMap Public 23Q2 (https://depmap.org/portal/, accessed on 14 August 2023). […]
# (§3) Fluorescence Polarization‐based competition assay
# Fluorescence Polarization assays were performed in 384‐well, Low Volume, Black, Round Bottom, Polystyrene Nonbinding surface Microplates (Corning, #4514). […] Fluorescence polarization values were determined with a PerkinElmer Envision reader with FITC FP dual mirror and FITC FP 480 excitation filter and FITC FP 535 emission filters. Fluorescence polarization values of a 10x serial dilution (10 nM to 100 µM) of the test compounds were determined in triplicates. EC50 values were calculated with GraphPad Prism software (version 10.0.2) with a non‐linear fit function (4PL sigmoidal curve fit) adjusting the bottom constrain to the FP value of free tracer. […]
# RKO WT cells [2] = test: CellTiter-Glo cytotoxicity of selected compounds (manual, 72 h); assay type: cell-based, human; details: up to 10 μM
# Experimental: as §2, §3
# (§4) EC50 values were calculated with GraphPad Prism […]
# (§5) the FP value of free tracer. […]
# (§6) instructions. […] For the screening of the whole SuFEx
# (§7) Data visualization was done with seaborn
# (§8) (https://seaborn.pydata.org, version 0.12.2). […]
# (§9) compounds. (F) Analysis of the cytotoxicity of compounds with treatment‐centric features related to FL2‐ […]
# (§10) Synthesis and in Vitro Evaluation of Diverse Heterocyclic Diphenolic Compounds as Inhibitors of DYRK1A.
# (§11) (7) Zhang, J.‐H.; Chung, T. D. Y.; Oldenburg, K. R. A Simple Statistical Parameter for Use in Evaluation and Validation of High Throughput Screening Assays. SLAS Discov.
# HEK293T cells = test: as above; assay type: cell-based, human; details: up to 10 μM
# Experimental: as §2, §3, §4, §5, §6, §7, §8, §9, §10, §11
# recombinant DDB1-CRBN = target: T1, recombinant DDB1-CRBN (Homo sapiens, UniProt Q96SW2); test: Fluorescence polarization-based competition assay for CRBN binding; details: 200 nM CRBN-DDB1, 20 nM pomalidomide-fluorescein tracer 16, triplicates; read-out: FP_CRBN_binding: CRBN binding affinity, EC50
# T1 construct: His; made in house; host or cells: High Five insect cells (baculovirus made and propagated in SF9 cells)
# Experimental: as §1, with “concentration. […]” for “concentration.”
# as §3
# Fluorescence Polarization assays were performed in 384‐well, Low Volume, Black, Round Bottom, Polystyrene Nonbinding surface Microplates (Corning, #4514). The test compounds were incubated with 200 nM CRBN‐DDB1 and 20 nM Pomalidomide‐fluorescein tracer 16 in 50 mM Tris‐HCl pH 7.5, 200 mM NaCl, 1 mM DTT, 0.02% Triton X‐ 100, and 0.1 µg/µL Bovine Serum Albumin (Sigma Aldrich, #A7030) in a total volume of 25 µL. Fluorescence polarization values were determined with a PerkinElmer Envision reader with FITC FP dual mirror and FITC FP 480 excitation filter and FITC FP 535 emission filters. Fluorescence polarization values of a 10x serial dilution (10 nM to 100 µM) of the test compounds were determined in triplicates. EC50 values were calculated with GraphPad Prism software (version 10.0.2) with a non‐linear fit function (4PL sigmoidal curve fit) adjusting the bottom constrain to the FP value of free tracer. […]
# [3] = tested on: RKO WT, RKO CRBN KO and RKO CRBN OE; test: Isogenic cell painting assay, treatment-centric feature selection and CRBN-dependency prediction; assay type: cell-based, human
# GSPT2 = target: T2, GSPT2 (Homo sapiens, UniProt Q8IYD1+Q96SW2); test: Western blot analysis of GSPT1 and GSPT2 degradation in RKO WT or CRBN KO cells; assay type: cell-based; details: RKO WT or RKO CRBN KO, 10 µM, 16 h
# T2 construct: endogenous in cells; host or cells: RKO WT or RKO CRBN KO
# Experimental: (A) Structure of FL2-14 comprising fluorosulfate scaffold FL2 (black) and tail group modification 14 (blue). (B) DMSO-normalized quantitative proteomics after 16 h of treatment with FL2-14 (10 μM) in RKO WT (n = 2). […] (C) Structural alignment of AlphaFold models of GSPT1 (AF-P15170-F1-model_v4 in gray) and GSPT2 (AF-Q8IYD1-F1-model_v4 in blue). (D) Validation of GSPT2 degradation by FL2-14. […] (E) Dose–response of FL2-14 in RKO and HEK293T cells. Cells were treated with the FL2-14 (0 to 10 μM) for 16 h. (F) Degradation of GSPT2^WT or GSPT2^G566N. […]
# Analysis of targeted protein degradation of GSPT1 and GSPT2 via western blot For degradation assays 800 000 RKO WT or CRBN KO cells were seeded 1 day prior to the treatment in 6 well plates.
# Then, cells were treated with 10 µM of the compounds for 16 hours if not otherwise stated. Cells were harvested, lysed for 30 min at 37°C in lysis buffer (1x PBS, 1% SDS, 2 mM MgCl2, 1x Halt Protease inhibitor cocktail, 50 Units Benzonase) and cleared for 30 min at 18 000 x g at 4°C. Protein concentration was determined with the Pierce 660 nm Protein Assay using the Ionic Detergent Compatibility Reagent (Thermo Scientific). 10 µg total proteome were subjected to western blot analysis by adding 4x Bolt™ LDS Sample Buffer (Thermo Scientific). Samples were boiled at 95°C for 5 min and subjected to gel electrophoresis with Bolt™ 4‐12% Bis‐Tris Plus Gels (Thermo Scientific) with Bolt™ MES SDS Running Buffer (Thermo Scientific). Membranes were blocked with 5% fat‐free milk in TBS‐T (20 mM Tris, 150 mM NaCl, 0.1% Tween, pH 7.6) for 1 h at room temperature and washed subsequently 3x 5 min with TBS‐
# T. Afterwards, they were incubated for 1 h at room temperature with either GSPT1 antibody (Abcam ab49878, rabbit, […]
# rabbit, 1:10 000), CRBN (Cell Signaling Technologies, CST71810S, rabbit, 1:1000), or GAPDH (SantaCruz sc‐47724, mouse, 1:1 000). Followed by washing 3x 5 min with TBS‐T and incubation for 1 h at room temperature with either Goat ANTI‐RABBIT IgG StarBright™ Blue 700 (Bio‐Rad, #12004162, 1:10 000) or Goat anti‐Mouse IgG (H+L) Cross‐ Adsorbed Secondary Antibody, DyLight™ 800 (Bio‐Rad, STAR117D800GA, 1:10 000) fluorophore‐conjugated
Compound,EC50 (RKO WT cells [2]) [µM],EC50 (HEK293T cells) [µM],EC50 (recombinant DDB1-CRBN) [µM],also measured
"Nc1cccc2c1C(=O)N(C1CCC(=O)NC1=O)C2=O (centres unmarked) [Pomalidomide, reference compound]",–,–,–,cytotoxicity to RKO WT (RKO WT cells [1]): not cytotoxic
O=C1CCC(N2C(=O)c3ccc(Nc4cccc(OS(=O)(=O)N5CC(CCO)C5)c4)cc3C2=O)C(=O)N1 (centres unmarked) [FL1-2],> 10,> 10,0.419,–
COc1cc(N2CCN(CCOCCOCCNC(=O)CNc3cccc4c3C(=O)N(C3CCC(=O)NC3=O)C4=O)CC2)ccc1Nc1ncc(Cl)c(Nc2ccccc2S(=O)(=O)C(C)C)n1 (centres unmarked) [TL 13-12],–,–,–,"change of cell size across isogenic RKO cells ([3]; 1.5 μM, RKO CRBN OE vs RKO CRBN KO): enlarges cells drastically in a CRBN-dependent manner"
CN(C)c1ncc(CN(C)S(=O)(=O)Oc2cccc(Nc3ccc4c(c3)C(=O)N(C3CCC(=O)NC3=O)C4=O)c2)cn1 (centres unmarked) [FL1-18],> 10,> 10,0.363,–
O=C1CCC(N2C(=O)c3ccc(Nc4cccc(OS(=O)(=O)N5CCC(c6ccco6)C5)c4)cc3C2=O)C(=O)N1 (centres unmarked) [FL1-12],> 10,> 10,2.78,–
CN(Cc1ncc(C2CC2)o1)S(=O)(=O)Oc1cccc(Nc2ccc3c(c2)C(=O)N(C2CCC(=O)NC2=O)C3=O)c1 (centres unmarked) [FL1-14],–,–,0.395,GSPT1/2 degradation by CRBN binders with tail group modification 14 (GSPT2): weak degradation of GSPT2
CN1C(=O)CCC(N2C(=O)c3cccc(N)c3C2=O)C1=O (centres unmarked) [Methylated pomalidomide],–,–,–,Number_Features: number of treatment-centric features selected [3]: 0

# Reference: PMC10764104, “Discovery of Molecular Glue Degraders via Isogenic Morphological Profiling” (ACS Chemical Biology, 2023)
